Measured values taken from patent US11542295B2, “Use of 20-hydroxyecdysone and the derivatives thereof in the treatment of myopathies” (BIOPHYTIS, priority 2017, dated 2023).

Columns and labels:
ERK1/2 = ERK1/2 phosphorylation in human DMD myocytes (Western Blot); type: cell-based; conditions: 10 μM, 10 minutes to 24 hours, vs untreated control
Procedure: Human DMD skeletal muscle cells (KM571DMD1OFL Cl1) were differentiated for 5 days then optionally incubated with BIO101 at 10 μM for periods of between 10 minutes and 24 hours.
A densitometric analysis of results of at least 6 independent Western Blot experiments described the effects of BIO101 on the phosphorylation of AKT (FIG. 8A) and ERK1/2 (FIG. 8B) is shown, *p<0.05 versus the untreated control.

[1] = system: Human DMD skeletal muscle cells (KM571DMD10FL Cl1); experiment: Differentiation of human DMD myoblasts into myotubes; type: cell-based; conditions: 10 μM, vs untreated control cells
Procedure: Various parameters have been measured to assess myotube differentiation. Human DMD skeletal muscle cells (KM571DMD10FL Cl1) were differentiated for 3 days then incubated with or without BIO101 at 10 μM. The fusion index and the number of nuclei per myotube were validated as relevant and sensitive indicators of myotube differentiation.
The fusion index illustrated in FIG. 7A represents the percentage of differentiated cell nuclei with respect to the cell total.
The number of nuclei per myotube is illustrated in FIG. 7B, 300 myotubes were counted.
The myotube diameter is illustrated in FIG. 7C, 150 myotubes were measured per condition.
The results in FIGS. 7A,7B and 7C show the mean data measured during three independent experiments, plus or minus the standard error (SEM).

[2] = system: Human DMD skeletal muscle cells (KM571DMD1OFL Cl1); experiment: Cellular respiration (oxygen consumption rate, Seahorse XF Analyzer); type: cell-based; conditions: two days of treatment
Procedure: Human DMD skeletal muscle cells (KM571DMD1OFL Cl1) were differentiated for 4 days, then incubated in the presence or absence of BIO101 (1 or 5 μM) for 2 days. The oxygen consumption rate, also known as OCR, which reflects the mitochondrial respiration of the cells was measured using a Seahorse XF Analyzer (registered trademark, Agilent).
The basal respiration is measured directly whereas the maximum respiration is measured after adding oligomycin followed by FCCP (FIG. 9A and FIG. 9B). The results are referenced to the OCR of the untreated cells and are shown in the form of means plus or minus the standard error (SEM).

[3] = system: tibialis anterior muscle of C57BL10 mdx mice; experiment: Histological study of tibialis anterior muscle stained with Sirius Red (fibrotic area); type: in vivo, mouse; conditions: 50 mg/kg*day, two months, p=0.0709
Procedure: Twelve-week-old C57BL10 gene pool (wild mice referred to as “C57” in the figures) and C57BL10 mdx (mouse model of Duchenne muscular dystrophy, referred to as “mdx” in the figures) male mice, produced at Charles Rivers, were used. Two groups of mdx were chronically exposed per os either to BIO101 (number of mice n=9) or to BIO103 (number of mice n=9) at a dose of 50 mg/kg*day. A group of C57 mice (number of mice n=5) and a group of mdx mice (number of mice n=15) received the vehicle, i.e. no treatment. The animals of all of the groups were tested for their functional capacity (exertion tolerance test) after two months of treatment. The exertion tolerance test consists of measuring the maximum distance travelled (in-toto activity; FIGS. 1A and 1B). Furthermore, measurements of the maximum absolute isometric strength of the tibialis anterior muscle (in-situ activity; FIGS. 2A and 2B) were made after two months of treatment.
An assessment of muscle fibrosis by histological study is carried out on the tibialis anterior muscle (abbreviated as TA). Histological sections (7 μm) are produced and stained either with haematoxylin eosin (HE) or with Sirius Red (SR).
An anatomopathological analysis of the sections of tibialis anterior muscle stained with SR makes it possible to quantify the fibrotic area. […]

Row | SMILES | p-ERK1/2 (phosphorylation of ERK1/2) (ERK1/2) | increase in the myotube diameter ([1]; p<0.001) [%] | increase of the fusion index ([1]; p<0.001) | increase in the number of nuclei per myotube ([1]; p<0.01) [%] | basal respiration increase (OCR) vs untreated cells ([2]; 1 μM, p<0.01) [%] | maximum respiration increase (OCR after oligomycin and FCCP) vs untreated cells ([2]; 1 μM, p<0.05) [%] | maximum respiration increase (OCR after oligomycin and FCCP) vs untreated cells ([2]; 5 μM, p =0.13) [%] | basal respiration increase (OCR) vs untreated cells ([2]; 5 μM, p<0.001) [%] | onset of fibrosis (percentage area corresponding to fibrosis) compared to the control mdx group [3]
1 | CC(C)(O)CC[C@@H](O)[C@](C)(O)[C@H]1CC[C@@]2(O)C3=CC(=O)[C@@H]4C[C@@H](O)[C@@H](O)C[C@]4(C)[C@H]3CC[C@]12C [BIO101, 20-hydroxyecdysone] | significant increase | 21 | +7% | 34 | 20 | 51 | 22 | 21 | –
2 | CCSCC(=O)[C@H]1CC[C@@]2(O)C3=CC(=O)[C@@H]4C[C@@H](O)[C@@H](O)C[C@]4(C)C3CC[C@]12C (stereo partly drawn) [BIO103, (2S,3R,5R,10R,13R,14S,17S)-17-(2-ethylsulfanylacetyl)-2,3,14-trihydroxy-10,13-dimethyl-2,3,4,5,9,11,12,15,16,17-decahydro-1H-cyclopenta[a]phenanthren-6-one] | – | – | – | – | – | – | – | – | clearly tends to prevent
